Test results: PMC9501899 (Journal of the American Chemical Society, 2022)
Read-outs that look alike come from different tables or passages of the source.

Assays:
[1] = target: T1, LRRK2-NanoLuc with VCB protein (Homo sapiens, UniProt P40337+Q5S007); assay: NanoBRET-based ternary binding and cooperativity assay; conditions: for IC50: compound preincubated with VCB, lysate of HEK293 cells, LRRK2 tracer; for cooperativity (α): IC50 ratio without/with VCB
T1 construct: host or cells: HEK293 (digitonin-permeabilized), recombinant VCB added
Description: (A). Schematic illustration of the binary and ternary LRRK2 engagement assays. […] The fractional occupancy of the tracer is plotted against the concentrations of the compounds and fitted into the “nonlinear regression, one site-log IC50” model in GraphPad to obtain the IC50 values. The IC50 ratio between the blue curve and red cure is calculated as cooperativity (α). […] The NanoBRET signal was plotted against the compounds’ concentrations and fitted into “nonlinear regression, Gaussian” model in GraphPad. Error bars are mean ± SEM from three biological independent experiments.
Titration of PROTACs to the lysed cells and LRRK2 tracer in the presence or absence of recombinant VCB protein (VHL complexed with elongin B–elongin C) gives ternary and binary binding affinities of PROTACs for LRRK2, respectively. Similarly, the ternary complex formation assay also used LRRK2-NanoLuc transiently expressed in HEK293 as the BRET donor, but the acceptor was recombinant VCB protein labeled with BODIPY^576/589via the NHS ester-activated cross-linking reaction. PROTACs that can bridge LRRK2 and VCB together will produce a BRET signal (Figure 10E).
The HEK293 cells were transfected with the LRRK2-NanoLuc fusion vector (Promega, NV3401) following Promega’s protocol and seeded into a white 384-well plate (Corning3570) at a density of 6000 cells/well. The cells were then treated with 50 μg/mL of digitonin, 125 nM of LRRK2 tracer, testing compounds at decreasing concentrations (11 concentrations with a 2-fold serial dilution starting from 10 μM) or testing compounds and VCB mix (11 concentrations with a 2-fold serial dilution starting from 10 μM compound). The first six concentrations of VCB start from 32 μM with a 2-fold dilution, while the last five concentrations of VCB were kept fixed at 1 μM. The NanoBRET NanoGlo Substrate (Promega, N157C) was added at concentrations recommended by the manufacturer’s protocol. In the maximum signal control samples (DMSO control), DMSO was added instead of testing compounds. In the minimum signal control samples (no tracer control), DMSO and LRRK2 tracer dilution buffer were used to replace testing compounds and LRRK2 tracer separately. The filtered luminescence was measured within 10 min following the addition of the substrate on a PHERAstar (BMG LABTECH) plate reader equipped with a 450 nm bandpass filter (donor) and a 600 nm long-pass filter (acceptor). The fractional occupancy was calculated according to the equation: fractional occupancy = (mBRETtesting compound – mBRETno tracer control)/(mBRETDMSO control – mBRETno tracer control).

G2019S LRRK2 = target: T2, G2019S LRRK2 (Mus musculus, UniProt Q5S006, G2019S); assay: LRRK2 degradation in G2019S LRRK2 MEFs by Western blotting; assay type: cell-based; conditions: for Dmax: dose-dependent degradation
T2 construct: endogenous in cells; host or cells: G2019S LRRK2 MEFs
Description: (§1) These PROTACs were then biologically evaluated in mouse embryonic fibroblasts (MEFs) by Western blotting. Briefly, MEFs were treated with compounds at 33 nM and 1 μM for 4 h (Figure 2) and 24 h (Figure S2) separately, and the intracellular level of LRRK2, phosphorylated LRRK2 at Ser935, and phosphorylated Rab10 (pRab10) at Thr73 was determined. Rab10[5],[49] is one of the bona fide substrates of LRRK2, whose phosphorylation status is directly affected by the LRRK2 kinase activity and protein level. Phosphorylation of LRRK2 at Ser935 is a well-studied biomarker site used to assess the efficacy of type 1 LRRK2 inhibitors.[30]
(§2) Primary MEFs were generated as described in a previous study.[80] Briefly, the uterine horn was collected from adult female mice at day E12.5 and transferred to a 10 cm tissue culture dish containing cold PBS. Two forceps were used to tear the yolk sacs to isolate each embryo. Forceps were cleaned thoroughly with 70% ethanol between each embryo isolation. The embryos were culled, and a tissue piece was collected in a polymerase chain reaction (PCR) tube for genotyping. The red tissue of the embryo was removed, and the remainder was minced with a scalpel blade and incubated with a 7.5 mL trypsin–ethylenediaminetetraacetic acid (EDTA) solution for 10 min in a 37 °C, 5% CO2 tissue culture incubator. The dish was removed from the incubator and checked under a light microscope for single cells. Complete media (7.5 mL) was added to the trypsinized cells, and the cell suspension was transferred to a 15 mL Falcon tube and centrifuged at 1200 rpm for 5 min at room temperature. The trypsin was aspirated, the cell pellet was resuspended in a 5 mL fresh complete media, and the cell suspension was plated in a 60 mm tissue culture dish and incubated in a 37 °C, 5% CO2 tissue culture incubator. The MEFs at this stage were considered as passage 0 and were passaged and expanded for experimental use once the genotype was confirmed by allelic sequencing and immunoblotting. MEFs were cultured in Dulbecco’s modified Eagle’s medium (DMEM) containing 10% (v/v) fetal bovine serum (FBS), 2 mM L-glutamine, 100 U/mL penicillin, and 100 μg/mL streptomycin supplemented with 1× nonessential amino acids and 1 mM sodium pyruvate.
(§3) Culturing and passaging of adherent cell lines were carried out using an aseptic technique in CL1 or CL2 (for PBMC isolation) biological safety cabinets. All cells were incubated in a 37 °C incubator with 5% CO2. Cell lines were regularly tested for mycoplasma contamination. For Western blot assay, the cells were seeded in six-well plates. For immunoprecipitation of LRRK2, SH-SY5Y cells (cultured in DMEM-F12, supplemented with 15% (v/v) FBS, 100 U/mL penicillin and 100 μg/mL streptomycin, 1× nonessential amino acids, and 1 mM sodium pyruvate) were seeded in a 10 cm dish. All cells were treated with the indicated compounds such that the final concentration of DMSO was 0.1%. Following the treatment of cells with compounds at indicated concentrations and time periods, the media was removed and the cells were washed with PBS and lysed in a 100 μL ice-cold complete lysis buffer containing 50 mM tris–HCl pH 7.4, 1 mM EGTA, 10 mM 2-glycerophosphate, 50 mM sodium fluoride, 5 mM sodium pyrophosphate, 270 mM sucrose, supplemented with 1 μg/mL microcystin-LR, 1 mM sodium orthovanadate, complete EDTA-free protease inhibitor cocktail (Roche), and 1% (v/v) Triton X-100. The cells were immediately placed on ice and were scraped and collected into 1.5 mL Eppendorf tubes. Cell lysates were incubated on ice for 10 min prior to centrifugation at 15 000g at 4 °C for 15 min.

Rab10-pThr73 = assay: Rab10 dephosphorylation in G2019S LRRK2 MEFs by Western blotting; assay type: cell-based, mouse
Description: as §1, §2, §3

[2] = Mus musculus, 4 h, G2019S LRRK2 MEFs, read-out: EC50 G2019S pRab10

T2 sequence (Q5S006 whole entry G2019S): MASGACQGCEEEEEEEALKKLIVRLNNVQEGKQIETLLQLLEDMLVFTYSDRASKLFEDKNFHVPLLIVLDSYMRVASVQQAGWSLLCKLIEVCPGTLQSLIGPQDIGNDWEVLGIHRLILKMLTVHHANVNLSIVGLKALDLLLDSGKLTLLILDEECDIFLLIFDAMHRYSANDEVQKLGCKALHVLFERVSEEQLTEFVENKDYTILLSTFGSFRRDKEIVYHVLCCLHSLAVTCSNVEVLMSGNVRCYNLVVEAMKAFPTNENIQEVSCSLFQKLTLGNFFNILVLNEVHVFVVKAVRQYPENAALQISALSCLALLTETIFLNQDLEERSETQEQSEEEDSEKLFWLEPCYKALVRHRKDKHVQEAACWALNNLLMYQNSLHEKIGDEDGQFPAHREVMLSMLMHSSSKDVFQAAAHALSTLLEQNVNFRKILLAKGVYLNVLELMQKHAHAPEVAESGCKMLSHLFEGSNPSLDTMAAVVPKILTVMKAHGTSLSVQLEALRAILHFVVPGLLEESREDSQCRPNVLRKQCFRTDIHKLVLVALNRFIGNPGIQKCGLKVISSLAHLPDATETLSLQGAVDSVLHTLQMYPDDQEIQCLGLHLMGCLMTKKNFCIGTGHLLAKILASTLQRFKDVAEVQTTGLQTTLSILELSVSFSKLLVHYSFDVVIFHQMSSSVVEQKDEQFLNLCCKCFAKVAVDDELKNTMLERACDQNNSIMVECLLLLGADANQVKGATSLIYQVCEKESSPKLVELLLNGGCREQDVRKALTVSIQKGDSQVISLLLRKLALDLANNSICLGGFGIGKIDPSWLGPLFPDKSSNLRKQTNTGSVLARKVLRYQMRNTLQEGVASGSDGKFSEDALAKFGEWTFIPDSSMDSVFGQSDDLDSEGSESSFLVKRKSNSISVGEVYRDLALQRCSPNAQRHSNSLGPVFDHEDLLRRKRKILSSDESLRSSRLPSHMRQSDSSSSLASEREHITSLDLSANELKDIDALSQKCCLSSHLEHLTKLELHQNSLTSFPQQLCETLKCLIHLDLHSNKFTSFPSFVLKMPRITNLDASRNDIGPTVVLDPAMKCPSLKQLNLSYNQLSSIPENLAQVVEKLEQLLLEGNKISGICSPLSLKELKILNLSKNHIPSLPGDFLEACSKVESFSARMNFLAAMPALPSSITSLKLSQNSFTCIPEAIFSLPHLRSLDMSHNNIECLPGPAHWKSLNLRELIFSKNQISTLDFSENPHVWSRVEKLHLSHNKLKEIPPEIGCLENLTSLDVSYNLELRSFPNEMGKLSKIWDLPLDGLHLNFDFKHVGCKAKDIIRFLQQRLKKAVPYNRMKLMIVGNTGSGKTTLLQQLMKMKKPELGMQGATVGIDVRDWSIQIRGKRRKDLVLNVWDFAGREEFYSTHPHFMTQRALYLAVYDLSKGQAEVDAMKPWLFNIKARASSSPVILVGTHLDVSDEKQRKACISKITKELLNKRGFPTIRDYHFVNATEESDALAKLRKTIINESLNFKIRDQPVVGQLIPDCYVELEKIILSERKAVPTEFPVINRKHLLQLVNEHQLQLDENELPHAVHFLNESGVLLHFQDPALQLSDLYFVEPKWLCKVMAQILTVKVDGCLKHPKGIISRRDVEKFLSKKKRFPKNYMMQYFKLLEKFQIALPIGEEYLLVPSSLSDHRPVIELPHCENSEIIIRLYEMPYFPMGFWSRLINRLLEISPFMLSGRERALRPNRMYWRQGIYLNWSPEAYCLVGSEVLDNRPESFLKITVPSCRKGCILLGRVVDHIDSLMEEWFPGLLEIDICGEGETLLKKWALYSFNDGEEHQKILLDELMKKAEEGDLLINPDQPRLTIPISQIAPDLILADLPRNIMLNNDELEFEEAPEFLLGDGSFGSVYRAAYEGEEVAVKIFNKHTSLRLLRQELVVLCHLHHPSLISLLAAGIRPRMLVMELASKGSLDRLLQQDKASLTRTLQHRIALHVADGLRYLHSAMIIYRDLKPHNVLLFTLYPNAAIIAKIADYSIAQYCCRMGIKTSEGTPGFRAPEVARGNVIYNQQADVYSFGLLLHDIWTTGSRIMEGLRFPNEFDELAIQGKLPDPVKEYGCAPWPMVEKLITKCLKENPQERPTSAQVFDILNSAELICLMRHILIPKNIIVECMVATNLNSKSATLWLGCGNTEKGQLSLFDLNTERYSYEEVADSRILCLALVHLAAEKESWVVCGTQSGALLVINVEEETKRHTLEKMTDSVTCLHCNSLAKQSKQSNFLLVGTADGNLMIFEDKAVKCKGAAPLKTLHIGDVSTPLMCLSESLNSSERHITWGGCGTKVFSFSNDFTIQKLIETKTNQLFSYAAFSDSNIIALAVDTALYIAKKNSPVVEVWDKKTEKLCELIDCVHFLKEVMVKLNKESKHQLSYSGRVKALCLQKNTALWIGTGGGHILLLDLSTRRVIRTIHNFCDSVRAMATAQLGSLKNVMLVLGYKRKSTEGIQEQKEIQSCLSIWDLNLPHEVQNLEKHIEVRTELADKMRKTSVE

`CNc1nc(Nc2ccc(C(=O)N3CCN(CCOCCOCCSC(C)(C)[C@H](NC(=O)C4(F)CC4)C(=O)N4C[C@H](O)C[C@H]4C(=O)NCc4ccc(-c5scnc5C)cc4)CC3)cc2OC)ncc1Cl` [SD75] was tested, and the IC50 [1] was 1400 nM, the Dmax at 1 µM (G2019S LRRK2; 1 μM (1000 nM), read-out: Dmax (G2019S LRRK2), time-dependent degradation) was 81% and the Dmax (G2019S LRRK2; 24 h, read-out: Dmax,24h (G2019S LRRK2)) was 58%. For the same molecule, the “GS-pRab10 percent label at the end of the time curve” value (Rab10-pThr73; 1 µM) was 74%, the pRab10 dephosphorylated (Rab10-pThr73; 1 µM) was 75–90% and the EC50 (Rab10-pThr73; Mus musculus, 24 h, G2019S LRRK2 MEFs, read-out: EC50 for the dephosphorylation of Rab10 (GS-pRab10)) was 379 nM.
With `CNc1nc(Nc2ccc(C(=O)N3CCN(C[C@H]4CC[C@H](CSC(C)(C)[C@H](NC(=O)C5(F)CC5)C(=O)N5C[C@H](O)CC5C(=O)NCc5ccc(-c6scnc6C)cc5)CC4)CC3)cc2OC)ncc1Cl` (stereo partly drawn) [XL01126, (2S,4R)-1-((R)-3-((((1R,4R)-4-((4-(4-((5-Chloro-4-(methylamino)pyrimidin-2-yl)amino)-3-methoxybenzoyl)piperazin-1-yl)methyl)cyclohexyl)methyl)thio)-2-(1-fluorocyclopropane-1-carboxamido)-3-methylbutanoyl)-4-hydroxy-N-(4-(4-methylthiazol-5-yl)benzyl)pyrrolidine-2-carboxamide] the “cooperativity (α)” value [1] was 5.7, the IC50 [1] was 350 nM and the DC50 (G2019S LRRK2; 4 h) was 14 nM. For the same molecule, the inhibition at 0.033 µM (Rab10-pThr73; Mus musculus, 33 nM/4 h, G2019S LRRK2 MEFs, read-out: pRab10 inhibited) was over 60% and the EC50 (Rab10-pThr73; [2]) was 15 nM.
In the case of `CNc1nc(Nc2ccc(C(=O)N3CCN(C[C@H]4CC[C@@H](CSC(C)(C)[C@H](NC(=O)C5(F)CC5)C(=O)N5C[C@H](O)CC5C(=O)NCc5ccc(-c6scnc6C)cc5)CC4)CC3)cc2OC)ncc1Cl` (stereo partly shown) [XL01134], the “cooperativity (α)” value [1] is reported as 1.4, the IC50 [1] is reported as 790 nM and the DC50 (G2019S LRRK2; 4 h) is reported as 7 nM. It also gave a Dmax (G2019S LRRK2; 4 h, read-out: Dmax,4h (G2019S LRRK2)) of 81%, a pRab10 inhibited (Rab10-pThr73; 33 nM/4 h, G2019S LRRK2 MEFs) of over 60% and an IC50 (Rab10-pThr73; Mus musculus, 4 h, G2019S LRRK2 MEFs, read-out: GS-pRab10 IC50) of 12 nM.
In the case of `CNc1nc(Nc2ccc(C(=O)N3CCN(C[C@H]4CC[C@H](CSC(C)(C)[C@H](NC(=O)C5(F)CC5)C(=O)N5C[C@@H](O)C[C@H]5C(=O)NCc5ccc(-c6scnc6C)cc5)CC4)CC3)cc2OC)ncc1Cl` [cis-XL01126, (2S,4S)-1-((R)-3-((((1R,4R)-4-((4-(4-((5-Chloro-4-(methylamino)pyrimidin-2-yl)amino)-3-methoxybenzoyl)piperazin-1-yl)methyl)cyclohexyl)methyl)thio)-2-(1-fluorocyclopropane-1-carboxamido)-3-methylbutanoyl)-4-hydroxy-N-(4-(4-methylthiazol-5-yl)benzyl)pyrrolidine-2-carboxamide], the “degradation of G2019S LRRK2 (in words)” value (G2019S LRRK2; 4 h) is reported as “no degradation” and the EC50 (Rab10-pThr73; [2]) is reported as 116 nM.
